# According to EP4227307A1 (Genzyme Corporation, priority 2022, dated 2023):
# Where a name gives a salt, the structure may show the parent alone.
# Target: T1, human recombinant 6His-Nterm SHP2 full-length (Thr2-Arg593) (Homo sapiens, UniProt Q06124)
# T1 construct: 6His-Nterm SHP2 full-length (Thr2-Arg593, R&D system); 6His (N); purchased R&D system
# T1 sequence (Q06124 2-593): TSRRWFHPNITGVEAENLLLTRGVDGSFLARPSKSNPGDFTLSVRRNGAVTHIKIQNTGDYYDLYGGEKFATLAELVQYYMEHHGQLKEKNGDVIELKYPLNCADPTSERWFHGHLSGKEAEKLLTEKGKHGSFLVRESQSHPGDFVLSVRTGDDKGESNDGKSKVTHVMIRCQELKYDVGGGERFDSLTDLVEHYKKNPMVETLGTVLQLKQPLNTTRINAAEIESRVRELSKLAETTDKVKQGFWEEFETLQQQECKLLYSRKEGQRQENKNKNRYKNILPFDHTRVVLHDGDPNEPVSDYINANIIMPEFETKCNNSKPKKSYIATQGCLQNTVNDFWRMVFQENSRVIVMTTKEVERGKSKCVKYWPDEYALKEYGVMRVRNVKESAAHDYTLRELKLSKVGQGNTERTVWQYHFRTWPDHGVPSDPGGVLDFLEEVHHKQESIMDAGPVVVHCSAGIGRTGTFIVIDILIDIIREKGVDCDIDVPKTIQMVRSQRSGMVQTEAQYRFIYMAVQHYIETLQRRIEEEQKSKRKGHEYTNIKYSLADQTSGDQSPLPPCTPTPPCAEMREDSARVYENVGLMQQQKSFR
# Assay: SHP2 Phosphatase Assay (DiFMUP fluorescence)
# Assay type: biochemical
# Conditions: SHP2 0.2 nM pre-incubated with 100 nM bi-phosphorylated activating peptide; compound 1000-0.05 nM, 30 min pre-incubation; DiFMUP 20 µM, 45 min, room temperature; 10-concentration dose-response
# Summary of the method: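 SHP2 (0.2 nM) preactivated ≥10 min with 100 nM bis-phosphorylated peptide, then 30 min with compound (10 concentrations, 1000–0.05 nM) at room temperature, pH 7.2 HEPES buffer with DTT. DiFMUP (20 µM, added solution) reacted 45 min, pervanadate-stopped; fluorescence 350/450 nm. IC50 by 4-parameter logistic fit.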
row,IC50,Compound
1,17 nM,"Cc1nc(N2CCC3(CC2)Cc2ccccc2[C@H]3N)c2ccnn2c1-c1cnn(C)c1C [Compound 149, (1S)-1'-[7-(1,5-dimethylpyrazol-4-yl)-6-methyl-pyrazolo[1,5-a]pyrazin-4-yl]spiro[indane-2,4'-piperidine]-1-amine]"
2,15 nM,"Cc1nc(N2CCC3(CC2)Cc2ncccc2[C@H]3N)c2ccnn2c1-c1ccnc(C(F)(F)F)c1F [Compound 41, (5S)-1'-[7-[3-fluoro-2-(trifluoromethyl)-4-pyridyl]-6-methyl-pyrazolo[1,5-a]pyrazin-4-yl]spiro[5,7-dihydrocyclopenta[b]pyridine-6,4'-piperidine]-5-amine]"
3,21 nM,"COc1ccc2c(n1)CC1(CCN(c3nc(C)c(-c4cccc(F)c4F)n4nccc34)CC1)[C@@H]2N [Compound 221, (5S)-1'-[7-(2,3-difluorophenyl)-6-methyl-pyrazolo[1,5-a]pyrazin-4-yl]-2-methoxy-spiro[5,7-dihydrocyclopenta[b]pyridine-6,4'-piperidine]-5-amine]"
4,> 1000 nM,"Cc1nc(N2CCC3(CC2)Cc2ncccc2[C@H]3N)c2c(C(F)F)cnn2c1-c1ccccc1 [Compound 146, (5S)-1'-[3-(difluoromethyl)-6-methyl-7-phenyl-pyrazolo [1,5-a]pyrazin-4-yl]spiro[5,7-dihydrocyclopenta[b]pyridine-6,4'-piperidine]-5-amine]"
5,22 nM,"COc1ccc2c(n1)[C@@H](N)C1(CCN(c3nc(C)c(-c4cccc(F)c4F)n4nccc34)CC1)C2 [Compound 213, (7S)-1'-[7-(2,3-difluorophenyl)-6-methyl-pyrazolo[1,5-a]pyrazin-4-yl]-2-methoxy-spiro[5,7-dihydrocyclopenta[b]pyridine-6,4'-piperidine]-7-amine]"
6,146 nM,"Cc1nc(N2CCC3(CC2)Cc2c(F)cccc2[C@H]3N)c2ccnn2c1-c1cccc(F)c1F [Compound 94, (1S)-1'-[7-(2,3-difluorophenyl)-6-methyl-pyrazolo[1,5-a]pyrazin-4-yl]-4-fluoro-spiro[indane-2,4'-piperidine]-1-amine formate]"
7,9 nM,"Cc1nc(N2CCC3(CC2)Cc2ncccc2[C@H]3N)c2cc(CO)nn2c1-c1cccc(F)c1F [Compound 37, [4-[(5S)-5-aminospiro[5,7-dihydrocyclopenta[b]pyridine-6,4'-piperidine]-1'-yl]-7-(2,3-difluorophenyl)-6-methyl-pyrazolo[1,5-a]pyrazin-2-yl]methanol]"
8,3 nM,"COc1c(F)ccc(-c2c(C)nc(N3CCC4(CC3)Cc3ncccc3[C@H]4N)c3ccnn23)c1F [Compound 5, (5S)-1'-[7-(2,4-difluoro-3-methoxy-phenyl)-6-methyl-pyrazolo [1 ,5-a]pyrazin-4-yl]spiro[5,7-dihydrocyclopenta[b]pyridine-6,4'-piperidine] -5-amine]"
9,4 nM,"Cc1nc(N2CCC3(CC2)Cc2ncccc2[C@H]3N)c2ccnn2c1-c1ccc2nccnc2c1Cl [Compound 77, (5S)-1'-[7-(5-chloroquinoxalin-6-yl)-6-methyl-pyrazolo[1,5-a]pyrazin-4-yl]spiro[5,7-dihydrocyclopenta[b]pyridine-6,4'-piperidine]-5-amine]"
10,> 1000 nM,"Cc1nc(N2CCC3(CC2)Oc2ncccc2[C@H]3N)c2ccnn2c1-c1cccc(F)c1C(F)(F)F [Compound 129, (3R)-1'-[7-[3-fluoro-2-(trifluoromethyl)phenyl]-6-methyl-pyrazolo[1,5-a]pyrazin-4-yl]spiro[3H-furo[2,3-b]pyridine-2,4'-piperidine]-3-amine]"
11,8 nM,"COc1ccc2c(c1)CC1(CCN(c3nc(C)c(-c4ccnc(C)c4Cl)n4nccc34)CC1)[C@@H]2N [Compound 6, (1S)-1'-[7-(3-chloro-2-methyl-4-pyridyl)-6-methyl-pyrazolo[1,5-a]pyrazin-4-yl]-5-methoxy-spiro[indane-2,4'-piperidine]-1-amine]"
12,17 nM,"COc1ccc2c(n1)CC1(CCN(c3nc(C)c(-c4ccccc4F)n4nccc34)CC1)[C@@H]2N [Compound 56, (5S)-1'-[7-(2-fluorophenyl)-6-methyl-pyrazolo[1,5-a]pyrazin-4-yl]-2-methoxy-spiro[5,7-dihydrocyclopenta[b]pyridine-6,4'-piperidine]-5-amine]"
13,15 nM,"Cc1nccc(-c2c(C)nc(N3CCC4(CC3)Cc3ncc(F)cc3[C@H]4N)c3ccnn23)c1Cl [Compound 28, (5S)-1'-[7-(3-chloro-2-methyl-4-pyridyl)-6-methyl-pyrazolo[1,5-a]pyrazin-4-yl]-3-fluoro-spiro[5,7-dihydrocyclopenta[b]pyridine-6,4'-piperidine] -5-amine]"
14,5 nM,"Cc1nc(N2CCC3(CC2)Cc2ncccc2[C@H]3N)c2ccnn2c1-c1ccccc1 [Compound 39, (5S)-1'-(6-methyl-7-phenyl-pyrazolo[1,5-a]pyrazin-4-yl)spiro[5,7-dihydrocyclopenta[b]pyridine-6,4'-piperidine]-5-amine]"
15,6 nM,"Cc1cnc2c(c1)[C@@H](N)C1(CCN(c3nc(C)c(-c4ccccc4F)n4nccc34)CC1)C2 [Compound 8, (5S)-1'-[7-(2-fluorophenyl)-6-methyl-pyrazolo[1,5-a]pyrazin-4-yl]-3-methyl-spiro[5,7-dihydrocyclopenta[b]pyridine-6,4'-piperidine] -5-amine]"
16,16 nM,"Cc1nc(N2CCC3(CC2)Cc2ncccc2[C@H]3N)c2ccnn2c1-c1ccc2cnccc2c1 [Compound 169, (5S)-1'-[7-(6-isoquinolyl)-6-methyl-pyrazolo[1,5-a]pyrazin-4-yl]spiro[5,7-dihydrocyclopenta[b]pyridine-6,4'-piperidine]-5-amine]"
17,7 nM,"Cc1cc2c(cn1)[C@@H](N)C1(CCN(c3nc(C)c(-c4ccccc4F)n4nccc34)CC1)C2 [Compound 60, (7S)-1'-[7-(2-fluorophenyl)-6-methyl-pyrazolo[1,5-a]pyrazin-4-yl]-3-methyl-spiro[5,7-dihydrocyclopenta[c]pyridine-6,4'-piperidine]-7-amine]"

row,Compound,IC50
1,"Cc1nc(N2CCC3(CC2)Cc2c(F)cccc2[C@H]3N)c2ccnn2c1-c1ccccc1F [Compound 64, (1S)-4-Fluoro-1'-[7-(2-fluorophenyl)-6-methyl-pyrazolo[1,5-a]pyrazin-4-yl]spiro[indane-2,4'-piperidine]-1-amine hydrochloride]",46 nM
2,"COc1ccc2c(c1)[C@@H](N)C1(CCN(c3nc(C)c(-c4cccc(F)c4Cl)n4nccc34)CC1)C2 [Compound 9, (1S)-1'-[7-(2-chloro-3-fluorophenyl)-6-methyl-pyrazolo[1,5-a]pyrazin-4-yl]-6-methoxy-spiro[indane-2,4'-piperidine]-1-amine hydrochloride]",43 nM
3,"Cc1nc(N2CCC3(CC2)Cc2ncccc2[C@H]3N)c2ccnn2c1-c1ccncc1Cl [Compound 100, (5S)-1'-[7-(3-chloro-4-pyridyl)-6-methyl-pyrazolo[1,5-a]pyrazin-4-yl]spiro[5,7-dihydrocyclopenta[b]pyridine-6,4'-piperidine]-5-amine hydrochloride]",13 nM
4,"Cc1cc2c(cn1)CC1(CCN(c3nc(C)c(-c4cccc(C#N)c4F)n4nccc34)CC1)[C@@H]2N [Compound 117, 3-[4-[(5S)-5-amino-3-methyl-spiro[5,7-dihydrocyclopenta[c]pyridine-6,4'-piperidine]-1'-yl]-6-methyl-pyrazolo[1,5-a]pyrazin-7-yl]-2-fluoro-benzonitrile hydrochloride]",10 nM
5,"N[C@@H]1c2cccnc2CC12CCN(c1ncc(-c3cnn4ccccc34)n3nccc13)CC2 [Compound 90, (5S)-1'-(7-pyrazolo[1,5-a]pyridin-3-ylpyrazolo[1,5-a]pyrazin-4-yl)spiro [5,7-dihydrocyclopenta[b]pyridine-6,4'-piperidine] -5-amine hydrochloride]",13 nM
6,"Cc1nc(N2CCC3(CC2)Cc2ncccc2[C@H]3N)c2ccnn2c1-c1ccc2nccnc2c1 [Compound 27, (5S)-1'-(6-methyl-7-quinoxalin-6-yl-pyrazolo[1,5-a]pyrazin-4-yl)spiro[5,7-dihydrocyclopenta[b]pyridine-6,4'-piperidine]-5-amine hydrochloride]",16 nM
7,COc1c(F)cccc1-c1c(C)nc(N2CCC3(CC2)Cc2ncccc2[C@H]3N)c2ccnn12 [Compound 200],44 nM
8,"Cc1nccc(-c2c(C)nc(N3CCC4(CC3)Nc3ccccc3[C@H]4N)c3ccnn23)c1Cl [Compound 154, (3R)-1'-[7-(3-chloro-2-methyl-4-pyridyl)-6-methyl-pyrazolo[1,5-a]pyrazin-4-yl]spiro[indoline-2,4'-piperidine]-3-amine hydrochloride]",4 nM
9,"Cc1nc2c(s1)CC1(CCN(c3nc(C)c(-c4ccccc4F)n4nccc34)CC1)[C@@H]2N [Compound 104, (4S)-1'-[7-(2-fluorophenyl)-6-methyl-pyrazolo[1,5-a]pyrazin-4-yl]-2-methyl-spiro[4,6-dihydrocyclopenta[d]thiazole-5,4'-piperidine]-4-amine hydrochloride]",9 nM
